Tested on: E. coli cells
Test: Growth inhibition after 5 min incubation with porphyrin and white-light irradiation
Format: cell-based, Escherichia coli
Settings: for Growth inhibition (%) E. coli: 10 μM, incubated 5 min
Procedure: The abilities of various examples of the porphyrins of the instant invention to kill Gram-negative and Gram-positive bacteria were tested against that of T4MPyP. Each of the compounds was incubated with E. coli and S. aureus cells for 5 minutes, following which the samples were irradiated with white light for varying lengths of time.
Escherichia coli strain O4 (wild type), and methycillin-resistant Staphylococcus aureus, strain MRSA 110, were grown aerobically at 37° C. in brain heart infusion broth (BHI, Difco, Detroit, Mich.). The cells in the stationary phase of growth were harvested by centrifugation (2,000 g for 15 min) of the broth cultures, washed twice with 10 mM PBS at pH=7.4, containing 2.7 mM KCl and 0.14 M NaCl, and suspended in PBS at a density of 10^8-10^9 cells/ml (absorbance of about 0.7 at 650 nm). Aliquots of 5 ml of the cell suspension were incubated with 1 μM porphyrins for 5 min in the dark at room temperature. After incubation the suspensions were centrifuged and the cell pellets were collected immediately or washed with PBS and centrifuged again for one or three times.
The toxic effects of T4MPyP and its analogues on E. coli and S. aureus cells were evaluated by measuring the extent of growth inhibition (bacteriostatic effect) and reduction of survival (cytocidal/bacteriocidal effect) following treatment with porphyrin in the dark or upon light exposure.
In all cases, 5 ml of the cell suspension (10^8-10^9 cells/ml) were incubated for 5 min in the dark at room temperature with the selected photosensitizer at concentrations ranging between 0.5 and 10 μM. After dark-incubation, some of the cell samples were irradiated with white light (150 mW/cm^2). During irradiation, (up to 30 min) the cells were kept at 37° C. and magnetically stirred. The treated and untreated control cells were diluted with BHI and maintained at 37° C. while the absorbance of the suspension at 650 nm was monitored at predetermined time periods for determining growth curves. The percent of growth inhibition in the treated cells was calculated by the following equation: […]
where AX, and AC are the absorbances measured after 3 h incubation, respectively, for the treated and control cell suspensions, respectively, while A0 represents the initial absorbance and the AC is that of the control cell suspension after 5 hours incubation. Cell survival was determined by plating serially diluted aliquots of treated and untreated cells on brain heart agar and counting the number of colonies after 18-24 h incubation at 37° C.

For C[n+]1ccc(-c2c3nc(c(-c4cc[n+](C)cc4)c4ccc([nH]4)c(-c4cc[n+](Cc5ccccc5)cc4)c4nc(c(-c5cc[n+](C)cc5)c5ccc2[nH]5)C=C4)C=C3)cc1.Cl.Cl.[Cl-].[Cl-].[Cl-].[Cl-] [mono-benzyl, 5-(4-N-benzylpyridyl)-10,15,20-tris(4-N-methylpyridyl)-21H,23H-porphine tetrachloride dihydrochloride salt], the “Growth inhibition (%) E. coli” value (white light 5 min) was 54.1%, the “Growth inhibition (%) E. coli” value (white light 10 min) was 100% and the “photodynamic effectiveness relative to base porphyrin” value (same conditions as base porphyrin) was “about twice as effective as the base porphyrin”.

From US6573258B2, “Photodynamic porphyrin antimicrobial agents” (Frontier Scientific, Inc., priority 2000, dated 2003)
